ChEMBL document CHEMBL1123343, “5-(Halomethyl)-2-pyranones as irreversible inhibitors of alpha-chymotrypsin” (J Med Chem, 1986)

Columns and labels:
Chymotrypsin-C = molecular target: T1, Chymotrypsin-C (Homo sapiens, UniProt Q99895); experiment: Compound was tested for inhibition against alpha-chymotrypsin using N-acetyl tyrosine p-nitrophenyl ester; WI=Weak inhibition
T1 sequence (Q99895 whole entry): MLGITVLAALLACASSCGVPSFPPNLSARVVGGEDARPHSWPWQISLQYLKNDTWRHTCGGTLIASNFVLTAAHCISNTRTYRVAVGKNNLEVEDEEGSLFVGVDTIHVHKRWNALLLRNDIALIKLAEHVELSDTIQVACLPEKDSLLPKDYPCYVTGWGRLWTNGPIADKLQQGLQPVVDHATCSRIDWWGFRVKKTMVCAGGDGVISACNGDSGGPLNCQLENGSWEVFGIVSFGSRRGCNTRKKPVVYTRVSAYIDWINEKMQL

[1] = molecular target: T2, Chymotrypsin-C (Homo sapiens) (UniProt Q99895); experiment: Inactivation rate constant (kinact) was determined by exposing chymotrypsin to different concentrations of the […] and periodically diluting aliquots into an assay medium containing one of the […]
T2 sequence (whole entry): T1 sequence (Q99895 whole entry)

[2] = molecular target: T2, Chymotrypsin-C (Homo sapiens)
Description: Inactivation efficiency (I/E) was determined by incubating different ratios of pyrone and chymotrypsin for 18 h and then assaying the surviving Chymotrypsinogen enzyme activity

[3] = molecular target: T2, Chymotrypsin-C (Homo sapiens); remark: listed apart in the source
Description: Inactivation rate constant (kinact) was determined by exposing Chymotrypsinogen to different concentrations of the purine and periodically diluting aliquots into an assay medium containing one of the chromogenic substrates; NI=No inactivation

[4] = molecular target: T2, Chymotrypsin-C (Homo sapiens); remark: listed apart in the source
Description: Inactivation efficiency (I/E) was determined by incubating different ratios of pyrone and chymotrypsin for 18 hr and then assaying the surviving enzyme activity; NI=No inactivation

[5] = molecular target: T2, Chymotrypsin-C (Homo sapiens); experiment: Inactivation efficiency (I/E) was determined by incubating different ratios of pyrone and […] for 18 hr and then assaying the surviving enzyme activity; NI=No inactivation

Row | Ki (Chymotrypsin-C) | K inact [1] [min⁻¹] | I/E [2] | SMILES | K inact [3] | I/E [4] | I/E [5]
1 | Weak inhibition | 0.085 | 1.38 | O=c1occ(CCl)cc1Cc1cccc2ccccc12 | – | – | –
2 | Weak inhibition | – | – | Cc1oc(=O)c(Cc2cccc3ccccc23)cc1CCl | No inactivation | – | No inactivation

Row | SMILES | Ki (Chymotrypsin-C) | K inact [1] [min⁻¹] | I/E [2] | K inact [3] | I/E [4] | I/E [5]
3 | O=c1occ(CCl)cc1CCl | Weak inhibition | – | – | No inactivation | No inactivation | –
